Measurements as given in patent publication US20210353784A1, “DETECTING AND TREATING CANCERS USING CELL PENETRANT MTP53-OLIGOMERIZATION-DOMAIN PEPTIDE” (priority 2020, published 2021).

What was measured:
[1] = tested on: MDA-MB-468 cells compared to MCF7 cells; experiment: Cy5p53Tet cellular uptake by live cell imaging (confocal, Nikon Element quantification); type: cell-based, Human; conditions: 500 nM, 2 h incubation; Nikon Element analysis
Method: Hoechst staining (blue) was used to stain the nuclei. Two independent experiments with biological replicates were performed.
FIG. 1D is a graph showing quantification of Cy5p53Tet uptake in MCF7 and MDA-MB-468 cells via Nikon Element analysis. At least 200 cells per sample were measured by fluorescence microscopy.
In vitro uptake, specificity, and toxicity assays were performed to gauge the potential of mtp53ODPs as imaging agents. Live cell imaging was performed to compare the ability of Cy5p53Tet to stain ER+MCF7 breast cancer cells that express wtp53 and MDA-MB-468 TNBC cells which express stable missense mtp53 R273H. Cy5p53Tet was anticipated to detect both wtp53 and mtp53, but because of the higher stability of mtp53, MDA-MB-468 cells were predicted to have a higher signal. The intensity of the Cy5p53Tet signal was clearly higher in the MDA-MB-468 cells compared to the MCF7 cells (FIG. 1B), a difference that correlated to the level of p53 expression as determined by Western blot (FIG. 1C). […] However, after a 2 h incubation with Cy5p53Tet, the colocalization was clearly evident with the Hoechst-stained DNA (Supplemental Illustration S3 in U.S. Provisional application 63/186,409).
Cy5p53Tet Cellular Uptake by Live Cell Imaging. Cells were seeded at 2×10^5 per well in a 12-well glass bottom plate 1 day before imaging (MatTek). […]

[2] = tested on: p53, p73 and PARP1 protein levels in WHIM6 and WHIM25 tumors; experiment: Western blot of p53, p73 and PARP1 protein levels in PDX tumors after Cy5p53Tet injection; type: in vivo, NSG mice
Method: 25 μg of proteins were run on 12% polyacrylamide gel and the Cy5p53Tet peptide accumulated in tumors was scanned at Cy5 channel and quantified. The intensity of Cy5p53Tet peptide was analyzed by ImageJ. p53 and MDM2 protein levels from the WHIM6 and WHIM25 tumors post-injection with Cy5p53Tet peptide at 1 hr, 2 hr and 3 hr were determined by Western blot analysis. 25 ug of proteins were load on 12% SDS-PAGE gel.
FIG. 5C is a Western blot analysis showing p53, p63 and p73 protein levels from the WHIM6 and WHIM25 tumors 2 hr post injection with Cy5p53Tet peptide. 75 ug of proteins were load on 10% SDS-PAGE gel (left panel). p53, PARP1 and p73 protein levels from the WHIM6 and WHIM25 tumors 1 hr, 2 hr and 3 hr post injection with Cy5p53Tet peptide were determined by Western blot analysis (right panel). 50 ug of proteins were load on 10% SDS-PAGE gel.
PDX models have been used in translational cancer research to validate the mechanisms that link specific biomarkers to treatment efficacy that could make clinical decisions. The coexpression of mtp53 and PARP1 proteins can be biomarkers for companion diagnostics using PDX models with mtp53. […] Uptake of the Cy5p53Tet peptide in WHIM6 and WHIM25 tumors was assessed on an in vivo epifluorecent imaging system (IVIS). The Cy5p53Tet peptide was detected in both TNBC PDX tumors; however, there was a higher Cy5 fluorescence signal in the tumor site of WHIM6 compared to tumor site of WHIM25 (FIG. 5A, represent picture of 2 hr post injection). […] Samples were run on 12% polyacrylamide gel and the Cy5p53Tet peptide accumulated in tumors was scanned at Cy5 channel and quantified. […]
Given the high degree of structural similarity of the tetramerization domain shared by the p53 family members, p63, and p73, the Cy5p53Tet peptide is believed to bind to TD of p63 or p73 and cause the Cy5p53Tet peptide accumulation in WHIM6 tumors. […] A higher level of p63 was detected in WHIM6 than in WHIM25 tumors (FIG. 5C left panel, compare lane 1 to 2). p73 protein levels were very low in both WHIM6 and WHIM25 tumors. […]

[3] = tested on: WHIM6 and WHIM25 tumors; experiment: Epifluorescence imaging (IVIS) of Cy5p53Tet uptake in bilateral PDX WHIM6/WHIM25 tumors; type: in vivo, NSG mice; conditions: 10 nmol tail vein
Method: In vivo optical imaging of Cy5p53Tet peptide uptake in bilateral PDX WHIM6/WHIM25 xenograft models. 2 million WHIM6 cells and WHIM25 cells were injected subcutaneously on the left and right shoulders of each mouse. 10 nmol Cy5p53Tet peptide was intravenously injected to each mouse when tumor size reached to 100-200 mm^3. At 1 hr, 2 hr and 3 hr post Cy5p53Tet peptide injection, the tumors were removed and the epifluorescence images were taken using an IVIS Spectrum. […] Cy5p53Tet peptide epifluorescence intensity quantification in WHIM6 and WHIM25 tumors was analyzed.
First, WHIM6/WHIM25 bilateral PDX tumor-bearing NSG mice were tail vein injected with 10 nmol of Cy5p53Tet peptide to study its delivery efficacy (FIG. 5A). Then, the WHIM6 and WHIM25 tumors were removed at 1, 2, and 3 hr post-injection. Uptake of the Cy5p53Tet peptide in WHIM6 and WHIM25 tumors was assessed on an in vivo epifluorecent imaging system (IVIS). […] The Cy5p53Tet peptide signal was investigated in PDX tumor tissue by extracting proteins from the WHIM6 and WHIM25 tumors post-injection with the Cy5p53Tet peptide at 1 hr, 2 hr, and 3 hr, and the Cy5p53Tet peptide effects were characterized in PDX models (FIG. 5B). Samples were run on 12% polyacrylamide gel and the Cy5p53Tet peptide accumulated in tumors was scanned at Cy5 channel and quantified. […]

Substance: H-CysCy5-RKKRRQRRGEYFTLQIRGRERFEMFRELNEALELK-OH (N-terminal Cy5; Synthetic peptide based on p53 protein) [Cy5p53Tet]
- uptake of the mtp53ODP in MDA-MB-468 cells compared to MCF7 cells [1]: twofold higher
- mtp53 and wtp53 protein levels upon treatment ([2]; WHIM25 and WHIM6 tumors): not affected
- PARP1 protein levels in response to the peptide ([2]; mtp53 WHIM25 tumor samples): deceased
- p73 protein levels in response to the peptide ([2]; mtp53 WHIM25 tumor samples): increased
- Cy5 fluorescence signal in the tumor site of WHIM6 compared to WHIM25 [3]: higher
